Key:
Assay type in all cases: cell-based, human
[1] = system: fibronectin expression in ES2 cells; test: Microarray gene expression, Table 1
Method: (§1) Y/D is the ratio (in folds) of gene expression in cells treated with compound Y as compared with those of the no drug control (D),
(§2) YM/D is the ratio of gene expression in cells treated with compound YM (ACH-Y, Y without sugar moiety) compared with those of the no drug control (D)
(§3) Cell culture and drug-treatment.: ES2 cells were seeded in a T-25 flask with 4.5 million cells per flask for 24 hours. Cell culture was replaced with fresh medium with xanifolia-Y (Y) or DMSO no drug control (D) for 24 hours. Cells were then harvested for RNA isolation. Three experiments were done.
(§4) RNA extraction, labeling, hybridization, and data analysis. RNA was extracted from tumor cells using the Qiagen RNeasy Kit. RNA quality and quantity was checked by the Agilent BioAnalyzer and the NanoDrop® ND-1000 spectrophotometer respectively before further manipulation. The first and second cDNA strands were synthesized from 20 ng of total RNA using the Affymetrix T7 oligo(dT) primer protocol and kit for the two-cycle amplification. To produce amplified biotin-labeled-cRNA, the cDNA was […] by in vitro transcription using the MegaScript kit from Ambion. 15.0 μg of the labeled cRNA was fragmented and re-checked for concentration using the NanoDrop® ND-1000 spectrophotometer. A hybridization cocktail containing Affymetrix spike-in controls and fragmented labeled cRNA was loaded onto the Human U133 Plus 2.0 GeneChip® oligonucleotide array. The Affymetrix array (Affymetrix, Inc. Santa Clara, Calif.) is comprised of over 1,300,000 unique oligonucleotide features that represent greater than 38,500 well-substantiated human genes. The array was hybridized for 16 hours at 45° C. with rotation at 60 rpm then washed and stained with a strepavidin, R-phycoerythrin conjugate stain on the Affymetrix Fluidicis Station 450. Signal amplification was done using biotinylated antistreptavidin. The arrays were scanned using the GeneChip® 3000 confocal laser scanner with autoloader. The images were analyzed and quality control metrics recorded using Affymetrix GCOS software version 1.4. Lastly, the expression value for each gene was calculated using dChip PM-only model based or Plier algorithm.
(§5) Pairwise comparisons were made as follows: Treated vs. Control (Y vs. D), Modified Drug vs Control (YM/ACY-H vs. D) and Treated vs. Modified Drug (Y vs. YM/ACH-Y) Cel files analyzed using the Bioconductor package of R Statistical programming. Limma analysis generated a reasonable number of changing genes between the samples.
(§6) The raw data in the .CEL files were normalized by the GCRMA method (robust multi-array analysis). It is implemented in Bioconductor (http://www.bioconductor.org/). The raw signal intensity data were normalized, background corrected and summarized based on certain statistical models, and an expression value, in log 2-scale, is obtained per chip per probe set. Then the null hypothesis was tested that there's no significant changes in gene expression between the treatment pairs. This was done by LIMMA and is also implemented in Bioconductor. It uses empirical Bayes method to estimate the variance in gene expression. One comparison was made, namely, High Grade vs. Low Grade. The raw p-values were adjusted by the Benjamnin-Hochberg method for false discovery rate (FDR) control. All data sets contained a significant number of genes with a p-value less than 0.05, which is that the probability that a gene is NOT differential expressed (false positive) is 1:20.

[2] = system: phosphatase, protein expression in ES2 cells; test: Microarray gene expression, Table 19
Method: as §1, §2, §3, §4, §5, §6

[3] = system: myosin expression in ES2 cells; test: Microarray gene expression, Table 7
Method: as §1, §2, §3, §4, §5, §6

[4] = system: Fibronectin secretion from skin SK-Mel-5 cells; test: Fibronectin secretion (Western blot), SK-MEL-5 cells; conditions: Homo sapiens
[5] = system: CD54 expression in ES2 cells; test: Microarray gene expression, Table 11; conditions: probe 202638_s_at
Method: as §1, §2, §3
RNA extraction, labeling, hybridization, and data analysis. RNA was extracted from tumor cells using the Qiagen RNeasy Kit. RNA quality and quantity was checked by the Agilent BioAnalyzer and the NanoDrop® ND-1000 spectrophotometer respectively before further manipulation. […] The images were analyzed and quality control metrics recorded using Affymetrix GCOS software version 1.4. Lastly, the expression value for each gene was calculated using dChip PM-only model based or Plier algorithm.
Pairwise comparisons were made as follows: Treated vs. Control (Y vs. D), Modified Drug vs Control (YM/ACY-H vs. D) and Treated vs. Modified Drug (Y vs. YM/ACH-Y) Cel files analyzed using the Bioconductor package of R Statistical programming. […]

[6] = system: collagen expression in ES2 cells; test: Microarray gene expression, Table 5
Method: as §1, §2, §3, §4, §5, §6

Compound: C/C=C(/C)C(=O)O[C@H]1[C@H](OC(=O)/C(C)=C\C)[C@@]2(CO)C(CC1(C)C)C1=CCC3[C@@]4(C)CC[C@H](O[C@@H]5OC(C(=O)O)[C@@H](O)C(O[C@@H]6O[C@@H](CO)C(O)C6O)C5O[C@@H]5OC(CO)[C@H](O)C(O)C5O)C(C)(C)C4CC[C@@]3(C)[C@]1(C)[C@@H](O)[C@H]2O (stereo partly drawn) [Xanifolia-Y, 3-O-[β-D-galactopyranosyl (1→2)]-α-L-arabinofuranosy (1→3)-β-D-glucuronopyranosyl-21,22-O-diangeloyl-3β, 15α, 16α, 21β, 22α, 28-hexahydroxyolean-12-ene]
- FN1 fibronectin 1, gene expression ratio to no drug control (D) ([1]; probe 210495_x_at): −2.5 folds
- FN1 fibronectin 1, gene expression ratio to no drug control (D) ([1]; probe 211719_x_at): −2.6 folds
- FN1 fibronectin 1, gene expression ratio to no drug control (D) ([1]; probe 212464_s_at): −2.7 folds
- FN1 fibronectin 1, gene expression ratio to no drug control (D) ([1]; probe 216442_x_at): −2.6 folds
- PPP1R15A protein phosphatase 1, regulatory (inhibitor) subunit 15A, gene expression ratio to no drug control (D) ([2]; probe 37028_at): 2.4 folds
- PPP1R15A protein phosphatase 1, regulatory (inhibitor) subunit 15A, gene expression ratio to no drug control (D) ([2]; probe 202014_at): 2.6 folds
- DUSP10 dual specificity phosphatase 10, gene expression ratio to no drug control (D) ([2]; probe 215501_s_at): 3.2 folds
- DUSP10 dual specificity phosphatase 10, gene expression ratio to no drug control (D) ([2]; probe 221563_at): 3.8 folds
- MYLK myosin, light polypeptide kinase, gene expression ratio to no drug control (D) ([3]; probe 202555_s_at): −1.6 folds
- MYO6 myosin VI, gene expression ratio to no drug control (D) ([3]; probe 203215_s_at): −1.6 folds
- MYO5A myosin VA, gene expression ratio to no drug control (D) ([3]; probe 204527_at): −1.6 folds
- MYH9 myosin, heavy polypeptide 9, non-muscle, gene expression ratio to no drug control (D) ([3]; probe 211926_s_at): −2.2 folds
- MYO1D myosin ID, gene expression ratio to no drug control (D) ([3]; probe 212338_at): −1.7 folds
- MYH10 myosin, heavy polypeptide 10, non-muscle, gene expression ratio to no drug control (D) ([3]; probe 212372_at): −1.7 folds
- MYLK myosin, light polypeptide kinase, gene expression ratio to no drug control (D) ([3]; probe 224823_at): −1.5 folds
- MYO1C Myosin IC, gene expression ratio to no drug control (D) ([3]; probe 225080_at): −1.5 folds
- expression ratio to the control, myosin family ([3]; span over probes of Table 7): −1.5 to −2.2 folds
- inhibition at 10 µg/mL ([4]; 10 ug/ml): 11%
- inhibition at 20 µg/mL ([4]; 20 ug/ml): 40 to 57%
- ICAM1 intercellular adhesion molecule 1 (CD54), gene expression ratio to no drug control (D) [5]: 1.6 folds
- P4HB procollagen-proline, 2-oxoglutarate 4-dioxygenase, beta polypeptide, gene expression ratio to no drug control (D) ([6]; probe 200654_at): −1.6 folds
- P4HB procollagen-proline, 2-oxoglutarate 4-dioxygenase, beta polypeptide, gene expression ratio to no drug control (D) ([6]; probe 200656_s_at): −1.8 folds
- PLOD1 procollagen-lysine 1,2-oxoglutarate 5-dioxygenase 1, gene expression ratio to no drug control (D) ([6]; probe 200827_at): −1.7 folds
- COL6A3 collagen, type VI, alpha 3, gene expression ratio to no drug control (D) ([6]; probe 201438_at): −2.4 folds
- PLOD3 procollagen-lysine, 2-oxoglutarate 5-dioxygenase 3, gene expression ratio to no drug control (D) ([6]; probe 202185_at): −1.3 folds
- COL1A1 collagen, type I, alpha 1, gene expression ratio to no drug control (D) ([6]; probe 202311_s_at): −1.6 folds
- PCOLCE procollagen C-endopeptidase enhancer, gene expression ratio to no drug control (D) ([6]; probe 202465_at): −1.3 folds
- PLOD2 procollagen-lysine, 2-oxoglutarate 5-dioxygenase 2, gene expression ratio to no drug control (D) ([6]; probe 202619_s_at): −1.7 folds
- PLOD2 procollagen-lysine, 2-oxoglutarate 5-dioxygenase 2, gene expression ratio to no drug control (D) ([6]; probe 202620_s_at): −1.4 folds
- P4HA2 procollagen-proline, 2-oxoglutarate 4-dioxygenase, alpha polypeptide II, gene expression ratio to no drug control (D) ([6]; probe 202733_at): −1.4 folds
- COL5A1 collagen, type V, alpha 1, gene expression ratio to no drug control (D) ([6]; probe 203325_s_at): −1.7 folds
- P4HA1 procollagen-proline, 2-oxoglutarate 4-dioxygenase, alpha polypeptide I, gene expression ratio to no drug control (D) ([6]; probe 207543_s_at): −2.0 folds
- COL13A1 collagen, type XIII, alpha 1, gene expression ratio to no drug control (D) ([6]; probe 208535_x_at): −1.4 folds
- COL18A1 collagen, type XVIII, alpha 1, gene expression ratio to no drug control (D) ([6]; probe 209081_s_at): −1.7 folds
- COL13A1 collagen, type XIII, alpha 1, gene expression ratio to no drug control (D) ([6]; probe 211343_s_at): −1.9 folds
- COL13A1 collagen, type XIII, alpha 1, gene expression ratio to no drug control (D) ([6]; probe 211809_x_at): −2.0 folds
- COL4A2 collagen, type IV, alpha 2, gene expression ratio to no drug control (D) ([6]; probe 211966_at): −1.8 folds
- COL4A1 collagen, type IV, alpha 1, gene expression ratio to no drug control (D) ([6]; probe 211981_at): −1.6 folds
